Laboratory results reported in US6596692B1, “Substance P analogs for the treatment of cancer” (Dabur Research Foundation, priority 2000, dated 2003).
Non-standard residues stand in square brackets, D forms with d. Residues, ends and D or L forms follow the SMILES beside them. *: point of attachment. Octanoyl = CCCCCCCC(=O)*; pHOPA = not defined here; Ac5c = NC1(C(=O)O)CCCC1; Butyryl = CCCC(=O)*

Experiments:
Su.86.86 (pancreas) = test: In vitro cytotoxic activity, MTT assay, 72 hours; type: cell-based, human; conditions: Su8686, 100 pM
Description: (§1) In vitro Cytotoxic Activity of the Novel Synthesized Peptide Analogs
(§2) The cytotoxic activity of synthesized peptides was tested on six human tumor cell lines namely MCF7 (breast), U373 (glioblastoma), PTC, (colon), L132 (lung), Su.86.86 (pancreas), and KB (oral). The tumor cells were collected at exponential growth phase and resuspended in medium (1.5×10^6 cells/ml in RPMI 1640 containing 10% FBS). 150 μL of medium was added to the wells of a 96-well tissue culture plate (Nunc, Denmark) followed by 30 μl of cell suspension. The plate was left in an incubator (37° C., 5% CO2) overnight. 20 μl of the peptide (100 pM to 10 μM concentration) was added to marked wells of the 96-well plate. Each concentration was plated in triplicate. 20 μl of medium alone was added to control wells while wells without cells served as blanks. A total volume of 200 μL was ensured in each well and plate was left in incubator (37° C., 5% CO2). After 72 hours of incubation an MTT assay was performed and percentage cytotoxicity was calculated with respect to control cells.

MCF7 (breast) = test: In vitro cytotoxic activity, MTT assay, 72 hours; type: cell-based, human; conditions: MCF-7, 100 pM
Description: as §1, §2

PTC (colon) = test: In vitro cytotoxic activity, MTT assay, 72 hours; type: cell-based, human
Description: as §1, §2

[1] = tested on: human colon adenocarcinoma (PTC) xenografts; test: In vivo anti tumor activity on PTC tumor xenografts; set-up: species or system Balb/c athymic nude mice; conditions: 4.25 μg intravenously twice a day; for Tumor volumes, Average: group average
Description: In vivo Anti Tumor Activity of Substance P Analogs on PCT Tumor Xenografts Protocol The anti tumor activity of substance P analogs was studied in human colon adenocarcinoma (PTC) xenografts in nude mice. PTC tumor xenografts were grown in Balb/c athymic nude mice by subcutaneous inoculation of a single cell suspension of PTC cells (15×10^6 cells/100 μL). The tumor bearing animals were divided into 4 groups of three animals each including one group comprising untreated control animals. Treatment with Substance P Receptor Antagonists was initiated when the average tumor volumes, as measured using a vernier caliper, were between 400-800 mm^3. SEQ ID NO:5, SEQ ID NO:7 and SEQ ID NO:8 peptides were prepared at a concentration of 42.5 μg/ml and intravenously administered to the assigned group of tumor bearing animals at a dose of 4.25 μg/100 μL twice a day so that the total dose of 8.5 μg was administered to each animal. The treatment was continued for a period of 10 days. The antitumor activity of the compounds was monitored by measuring 15 tumor volumes every fourth day using the formula W*W*L*0.4 (W=smaller diameter, L=larger diameter). The percentage inhibition of tumor growth was calculated using. the formula (1−tumor volume-treated/ tumor volume-control)×100.

SCLC cells = conditions: SCLC proliferation; read-out: IC50, inhibition of SCLC proliferation; cited from earlier work
[2] = tested on: H69 SCLC cells xenografts; conditions: xenografts in vivo in nude mice; cited from earlier work
H69 SCLC cells = conditions: cited from earlier work
SCLC xenografts = conditions: cited from earlier work
Swiss 3T3 cells = conditions: cited from earlier work
H-510 SCLC cells = conditions: liquid culture and semi-solid media, read-out: IC50, inhibition of proliferation; cited from earlier work
H-69 SCLC cells = conditions: liquid culture and semi-solid media, read-out: IC50, inhibition of proliferation; cited from earlier work
KB (oral) = test: In vitro cytotoxic activity, MTT assay, 72 hours; type: cell-based, human; conditions: 100 pM
Description: as §1, §2

L132 (lung) = test: In vitro cytotoxic activity, MTT assay, 72 hours; type: cell-based, human
Description: as §1, §2

| Molecule | Tumor volumes, animal I ([1]; Day 6) [mm^3] | Tumor volumes, animal II ([1]; Day 6) [mm^3] | Tumor volumes, animal III ([1]; Day 6) [mm^3] | Tumor volumes, Average ([1]; Day 6) [mm^3] | Tumor volumes, animal I ([1]; Day 8) [mm^3] | Tumor volumes, animal II ([1]; Day 8) [mm^3] | Tumor volumes, animal III ([1]; Day 8) [mm^3] | Tumor volumes, Average ([1]; Day 8) [mm^3] | Tumor volumes, animal I ([1]; Day 12) [mm^3] | Tumor volumes, animal II ([1]; Day 12) [mm^3] | Tumor volumes, animal III ([1]; Day 12) [mm^3] | Tumor volumes, Average ([1]; Day 12) [mm^3] | Tumor volumes, animal I ([1]; Day 15) [mm^3] | Tumor volumes, animal II ([1]; Day 15) [mm^3] | Tumor volumes, animal III ([1]; Day 15) [mm^3] | Tumor volumes, Average ([1]; Day 15) [mm^3] | Tumor volumes, animal I ([1]; Day 19) [mm^3] | Tumor volumes, animal II ([1]; Day 19) [mm^3] | Tumor volumes, animal III ([1]; Day 19) [mm^3] | Tumor volumes, Average ([1]; Day 19) [mm^3] | other results |
| --- | --- | --- | --- | --- | --- | --- | --- | --- | --- | --- | --- | --- | --- | --- | --- | --- | --- | --- | --- | --- | --- |
| CC(C)C[C@H](NC(=O)[C@@H](Cc1c[nH]c2ccccc12)NC(=O)[C@H](Cc1ccccc1)NC(=O)[C@@H](Cc1c[nH]c2ccccc12)NC(=O)[C@H](CCC(N)=O)NC(=O)[C@@H](Cc1ccccc1)NC(=O)[C@@H]1CCCN1C(=O)[C@H](CCCCN)NC(=O)[C@@H]1CCCN1C(=O)[C@H](N)CCCNC(=N)N)C(=O)NC1(C(N)=O)CCCC1 [SEQ ID NO: 5, D-Arg-Pro-Lys-Pro-D-Phe-Gln-D-Trp-Phe-D-Trp-Leu-Ac5c-NH2] (H-[dR]PKP[dF]Q[dW]F[dW]L[Ac5c]-NH2; N-terminus assumed) | 307.8 | 520 | 687.7 | 505.1 | 748.8 | 1149.2 | 1411.2 | 1103.0 | 2049 | 3080.3 | 3840.0 | 2989.7 | 3310 | 3360 | 4480.0 | 3716.6 | 3582 | 1465.6 | 3499.2 | 2848.9 | Percentage cytotoxicity (Su.86.86 (pancreas)): Nil; Percentage cytotoxicity (MCF7 (breast)): Nil; Percentage cytotoxicity (PTC (colon); 100 pM): Nil; Percentage cytotoxicity (PTC (colon); 1 nM): 3.1 ± 0.5%; Tumor volumes, animal II ([1]; Day 22): 100 mm^3; Tumor volumes, animal III ([1]; Day 22): 2560.0 mm^3; Tumor volumes, Average ([1]; Day 22): 1330.0 mm^3 |
| D-MePhe-D-Trp-Phe-D-TrpLeu(psi)-(CH2NH)-Leu-NH2) [Analog 6] |  |  |  |  |  |  |  |  |  |  |  |  |  |  |  |  |  |  |  |  | IC50 (SCLC cells): 2 µM |
| pHOPA-D-Trp-Phe-D-Trp-Leu-Leu-NH2 (pHOPA-[dW]F[dW]LL-NH2; reading uncertain) [Analog R] |  |  |  |  |  |  |  |  |  |  |  |  |  |  |  |  |  |  |  |  | inhibition of proliferation of H69 SCLC cells in xenografts [2]: inhibit the proliferation; inhibition of proliferation of H69 SCLC cells in vitro (H69 SCLC cells): inhibit the proliferation |
| [Arg^6,D-Trp^7,9, MePhe^8] substance P(6-11) [antagonist G] |  |  |  |  |  |  |  |  |  |  |  |  |  |  |  |  |  |  |  |  | inhibition of SCLC xenografts in vivo (SCLC xenografts): showed inhibition of SCLC xenografts in vivo; potency relative to antagonist D (Swiss 3T3 cells; blocking bombesin/GRP mediated mitogenesis in Swiss 3T3 cells): ten fold less potent than antagonist D |
| [D-Arg^1, D-Phe^5, D-Trp^7,9, Leu^11] substance P [Antagonist D] |  |  |  |  |  |  |  |  |  |  |  |  |  |  |  |  |  |  |  |  | IC50 (H-510 SCLC cells): 5 µM; IC50 (H-69 SCLC cells): 5 µM; potency relative to antagonist A (Swiss 3T3 cells; preventing cellular effects of bombesin/GRP and vasopressin in mouse 3T3 cells, also growth of SCLC cells in serumfree medium): five fold more potent than antagonist A |
| CCCC(=O)N[C@H](CCCNC(=N)N)C(=O)N1CCC[C@H]1C(=O)N[C@@H](CCCCN)C(=O)N1CCC[C@H]1C(=O)N[C@H](Cc1ccccc1)C(=O)N[C@@H](CCC(N)=O)C(=O)N[C@H](Cc1c[nH]c2ccccc12)C(=O)N[C@@H](Cc1ccccc1)C(=O)N[C@H](Cc1c[nH]c2ccccc12)C(=O)N[C@@H](CC(C)C)C(=O)NC1(C(N)=O)CCCC1 [SEQ ID NO: 7, Butanoyl-D-Arg-Pro-Lys-Pro-D-Phe-Gln-D-Trp-Phe-D-Trp-Leu-Ac5c-NH2] (Butyryl-[dR]PKP[dF]Q[dW]F[dW]L[Ac5c]-NH2) | 25.6 | 66.6 | 0 | 30.7 | 176.4 | 260.1 | 72 | 169.5 | 580.8 | 1440 | 281.6 | 767.4 | 946.4 | 2427.6 | 864 | 1412.6 | 1741 | 2253 | 1800 | 1931.3 | Percentage cytotoxicity (KB (oral)): Nil; Percentage cytotoxicity (L132 (lung); 100 nM): 9 ± 2.3%; Percentage cytotoxicity (L132 (lung); 10 μM): 15 ± 2.3%; Percentage cytotoxicity (PTC (colon); 100 pM): Nil; Percentage cytotoxicity (PTC (colon); 1 nM): Nil; Tumor volumes, animal I ([1]; Day 22): 2018 mm^3; Tumor volumes, animal II ([1]; Day 22): 3110 mm^3; Tumor volumes, animal III ([1]; Day 22): 0 mm^3; Tumor volumes, Average ([1]; Day 22): 1709.3 mm^3 |
| D-MePhe-D-Trp-Phe-DTrp-Leu-MPA [Analog 7] |  |  |  |  |  |  |  |  |  |  |  |  |  |  |  |  |  |  |  |  | IC50 (SCLC cells): 5 µM |
| CCCCCCCC(=O)N[C@H](CCCNC(=N)N)C(=O)N1CCC[C@H]1C(=O)N[C@@H](CCCCN)C(=O)N1CCC[C@H]1C(=O)N[C@H](Cc1ccccc1)C(=O)N[C@@H](CCC(N)=O)C(=O)N[C@H](Cc1c[nH]c2ccccc12)C(=O)N[C@@H](Cc1ccccc1)C(=O)N[C@H](Cc1c[nH]c2ccccc12)C(=O)N[C@@H](CC(C)C)C(=O)NC1(C(N)=O)CCCC1 [SEQ ID NO: 8, Octanoyl-D-Arg-Pro-Lys-Pro-D-Phe-Gln-D-Trp-Phe-D-Trp-Leu-Ac5c-NH2] (Octanoyl-[dR]PKP[dF]Q[dW]F[dW]L[Ac5c]-NH2) | 532.4 | 291.6 | 0 | 274.6 | 1020.6 | 691.2 | 0 | 570.6 | 2080.8 | 1440 | 156.8 | 1225.8 | 3880.8 | 2592 | 580.8 | 2351.2 | 3520.0 | 1474.8 | 1710 | 2234.9 | Tumor volumes, animal I ([1]; Day 22): 2312.0 mm^3; Tumor volumes, animal II ([1]; Day 22): 36 mm^3; Tumor volumes, animal III ([1]; Day 22): 3177 mm^3; Tumor volumes, Average ([1]; Day 22): 1841.6 mm^3 |
